# Test results: patent US20240299345A1, “GINKGOLIDE B AND ITS DERIVATIVES FOR INHIBITING AND/OR REVERSING AGING” (CHINA MEDICAL UNIVERSITY, priority 2023, published 2024)
# Columns and labels:
# [1] = system: skeletal muscle of aged C57BL/6 mice; experiment: Muscle histology (fiber type, oil red O, Masson's trichrome, central nuclei) and vascular network in aged mice; format: in vivo, mouse; details: GB 2 months
# Procedure: Body composition was measured by Minispec LF50 TD-NMR (Bruker, MA, USA) based on nuclear magnetic resonance methods. Briefly, mice were anesthetized for the duration of the procedure by 3% isoflurane (Zoctis, London, UK) and placed in the scanning chamber in the prone position, with the limbs and tail stretched away from the body. The analysis would be conducted by default software per manufacturer's protocol. The vascular networks […] were quantified by in vivo micro-computed tomography (U-CT, Milabs, Netherlands). Briefly, mice intravenously received 150 μL ExiTron™ nano 12000 (#130-095-698, Miltonic Biotec GmbH, Bergisch Gladbach, Germany), and then mice were anesthetized with isoflurane before being positioned on the scanning chamber. After scanning, the blood vessels were analyzed by a curved multiplanar reconstruction algorithm by using Osirix software (Bernex, Switzerland).
# [2] = system: ovariectomized (OVX) female C57BL/6 mice; experiment: Postmenopausal (OVX, estrogen-deficient) mouse model: muscle wasting and physical activity; format: in vivo
# Procedure: Forelimb grip strength was measured by a grip strength meter (Muromachi Kikai Co., Tokyo, Japan). Each mouse performed five trials for force measurement, and the values were normalized to body and recorded. A rotarod test was carried out by using the rotarod treadmill (Singa Technology Corporation, Taoyuan City, Taiwan). The speed was adjusted to 4 rpm for 4 sec, 10 rpm for 10 sec, 20 rpm for 20 sec, and then 40 rpm until the mice fell. Mice were familiarized with the rotarod and balance beam by running 5 min for three consecutive days before the onset of experimentation. During the experiment, each mouse performed four trials, and the average time that each rodent was able to stay on top of the rotarod treadmill was recorded. The balance beam test was used to assess subtle motor coordination and balance. After initial training, mice were given four consecutive trials where they were required to cross 60 cm of a round beam (14 mm in diameter). The time for crossing the beam and the number of hind-feet slip were recorded. Hanging endurance was determined by Kondziella's inverted hanging screen test. Mice were putted at the center of grasped wire screen (bar thickness, 2 mm; mesh, 10 mm). After inverting the wire screen, the time of sustained limb tension on the screen were recorded. A fixed maximum hanging limit of 600 seconds was used. Each trial was repeated three times at 30-min interval, the mean values were recorded.
# [3] = system: circulating inflammatory cytokines and chemokines; experiment: Serum 40-plex cytokine/chemokine panel in aged mice; format: in vivo, mouse; details: of 40 detected, GB 2 months
# From the text: Serum was collected by cardiac puncture upon sacrifice.
# [4] = system: aged M1 macrophages, MPD C2C12, MPD C2C12-derived myotubes; experiment: Inflammatory cytokine expression in aged cells under culture conditions; format: cell-based, mouse; details: GB 5 mg/L for 48 hr
# From the text: C2C12 myoblast cell line (#CRL-1772TM, ATCC, Manassas, VA, USA) was expanded in high-glucose DMEM (#D7777, Sigma-Aldrich) with 10% FBS (#10270106, Gibco, Waltham, MA, USA) and 1% PSG (#10378016, Gibco). Passage 15-20 C2C12 was considered as multiple population doublings C2C12. Subconfluent C2C12 was differentiated to myotubes by myogenic induction medium, high-glucose DMEM (Sigma-Aldrich) containing 2% horse scrum (#16050122, Gibco) for 5 days. Aged bone-marrow monocytes were isolated from 20-month-old female C57BL/6 mice and then differentiated into macrophages in RPMI 1640 (#11875085, Gibco) supplemented with 10% FBS and 20 ng/ml M-CSF (#315-02, PeproTech, Cranbury, NJ, USA). Inflammatory MI macrophages were induced by 45 ng/mL IFN-γ (#485-MI-100, R&D Systems, Minneapolis, MN, USA) +100 ng/mL LPS (#L4391, Sigma-Aldrich). The indicative cells were then treated with or without GB (5 mg/L) for 48 hr. […]
# (§1) RNAs were purified by using the TRIzol® (#15596018, Invitrogen) and chloroform method (#C7559, Sigma-Aldrich) and reversed transcribed using High-Capacity cDNA Reverse Transcription Kit (#4368814, Applied Biosystems, Foster City, CA, USA). The quantitative RT-PCR was conducted with universal probe system (Roche Life Science, Indianapolis, IN, USA) by using a QuantStudio™ 7 Flex Real-Time PCR System (Applied Biosystems) and was normalized by the expression of GAPDH.
# p16, p19, p57, γ-H2AX = experiment: Senescence markers in multiple tissues of aged mice (real-time PCR, IHC); format: in vivo, mouse
# Procedure: as §1
# [5] = system: H2O2-induced senescent human MSCs; experiment: H2O2-induced senescence in human MSCs; format: cell-based; details: GB 5 mg/L
# From the text: C2C12 myoblast cell line (#CRL-1772TM, ATCC, Manassas, VA, USA) was expanded in high-glucose DMEM (#D7777, Sigma-Aldrich) with 10% FBS (#10270106, Gibco, Waltham, MA, USA) and 1% PSG (#10378016, Gibco). Passage 15-20 C2C12 was considered as multiple population doublings C2C12. Subconfluent C2C12 was differentiated to myotubes by myogenic induction medium, high-glucose DMEM (Sigma-Aldrich) containing 2% horse scrum (#16050122, Gibco) for 5 days. Aged bone-marrow monocytes were isolated from 20-month-old female C57BL/6 mice and then differentiated into macrophages in RPMI 1640 (#11875085, Gibco) supplemented with 10% FBS and 20 ng/ml M-CSF (#315-02, PeproTech, Cranbury, NJ, USA). Inflammatory MI macrophages were induced by 45 ng/mL IFN-γ (#485-MI-100, R&D Systems, Minneapolis, MN, USA) +100 ng/mL LPS (#L4391, Sigma-Aldrich). The indicative cells were then treated with or without GB (5 mg/L) for 48 hr. Commercial human mesenchymal stem cells (MSCs)40 were cultured in MSC maintenance medium consisting of IMDM, 10% FBS (#10270106, Gibco), 10 ng/ml bFGF (#233-FB, R&D Systems) and 1% PSG (#10378016, Gibco). To induce senescence, we treated cells at approximately 50% confluence with 200 μM H2O2 for 2 hr and then washed cells by PBS two times to remove H202. The cells were treated with GB (5 mg/L) or vehicle in fresh growth medium and subjected to the subsequent experiments at indicative time point.
# Cell viability was measured by a CCK-8 kit (#ab228554, Abcam), and cell proliferation was determined by manually cell counting with hemocytometer. Senescence-associated β-galactosidase activity was determined by senescence-associated β-galactosidase staining kit (#9860, Cell Signaling Technology, Danvers, Massachusetts, USA) according to the manufacturer's instructions. Senescence-associated heterochromatin foci were visualized by DAPI staining.
# as §1
# healthy adult humans = details: short-term pharmacological studies; cited from earlier work
# [6] = GB 3 and 12 mg/kg daily for two months
structure (smiles),measurement,setting,value
"CC1C(=O)OC2C(O)C34C5CC(C(C)(C)C)C36C(OC(=O)C6O)OC4(C(=O)O5)C12O (stereo not drawn) [GB, Ginkgolide B]",capillary density,"[1]; CD31 staining of quadriceps, p=0.0492",dramatically enlarges
same,aging-related changes in fiber-type switching,"[1]; GA muscle, in particular type 1 and 2B myofibers",partially reversed
same,number of central myonuclei in aged myofibers,[1]; p=0.0011,reduced
same,collagen deposition in muscle,"[1]; Masson's trichrome, GA muscle, p=0.0004",reduced
same,deep femoral artery,"[1]; micro-CT, p=0.012",dramatically enlarges
same,intramuscular lipid infiltration,"[1]; oil red O, GA muscle, p=0.01",reduced
same,myofiber CSA,[2]; [6],dose-dependently restored
same,skeletal muscle mass,[2]; [6],dose-dependently restored
same,decline of motor performance,"[2]; high-dose GB, two months",fully reversed
same,forelimb grip strength,"[2]; high-dose GB, two months",improved
same,number of circulating proteins significantly altered,[3],12
same,inflammatory cytokines in aged cells under culture conditions,[4],downregulated
same,expression of histone γ-H2AX,"p16, p19, p57, γ-H2AX; IHC, multiple tissues of aged mice",reduced
same,"expression of p16, p19 and p57","p16, p19, p57, γ-H2AX; liver, kidney, lung, spleen, heart and muscle of aged mice, except p16 in spleen and p57 in lung",significantly inhibited
same,cellular morphology,[5],restored the spindle sharp from flattened and enlarged morphology
same,expression of senescence markers,[5],reduced
same,proliferation,[5],promoted
same,senescence-associated heterochromatin foci and nucleus size,[5],reduced
same,senescence-associated β-galactosidase (SA-β-Gal) staining,[5]; p=0.0007,reduced
same,cellular viability (CCK8),[5]; p=0.0026,promoted
same,tolerability of multiple administration,healthy adult humans,well tolerated
